Patent US20150189883A1, “METHODS OF CONTROLLING INSECTS” (Syngenta Participations AG, priority 2012, published 2015)
Like-named read-outs stand apart in the source and are kept apart here.

Experiments:
[1] = test system: Chilo suppressalis (Rice Stem Borer); assay: Chilo suppressalis (Rice Stem Borer) treated rice leaf petri dish test, mortality; type: in vivo; conditions: read-out: Control/%
Description: Nephotettix virescens (Green Leafhopper) Rice seedlings are treated with the diluted test solutions in a spray chamber. After drying, plants are infested with 10 N5 nymphs (3 replicates). 5 days after the treatment samples are checked for mortality. […] After drying, plants are infested with 20 N3 nymphs (2 replicates). 6-12 days after the treatment samples are checked for mortality. […] 10 larvae (L2) are added and the dish is covered with a filter tissue and a plastic lid. 5 days after treatment the percentage mortality is assessed (3 replicates per concentration).
The data in the comparative Examples below were obtained using the methods described above.

[2] = test system: Nilaparvata lugens (Brown Plant Hopper); assay: Nilaparvata lugens (Brown Plant Hopper) rice seedling spray test, mortality; type: in vivo; conditions: read-out: Control/%
[3] = Chilo suppressalis (Rice stem borer), application rate 0.2 ppm
[4] = Chilo suppressalis (Rice stem borer), application rate 0.8 ppm
[5] = Nilaparvata lugens (Brown plant hopper), application rate 25 ppm
[6] = Nilaparvata lugens (Brown plant hopper), application rate 50 ppm

SMILES	pest or weed control at 0.2 ppm ([1]; Chilo suppressalis)	pest or weed control at 0.8 ppm ([1]; Chilo suppressalis)	pest or weed control at 25 ppm ([2]; Nilaparvata lugens)	pest or weed control at 50 ppm ([2]; Nilaparvata lugens)	also measured
Cc1cc(C2=NOC(c3cc(Cl)cc(Cl)c3)(C(F)(F)F)C2)ccc1C(=O)NC1CSC1 (stereo not shown) [Compound of the invention]	93%	100%			
Cc1cc(C2=NOC(c3cc(Cl)cc(Cl)c3)(C(F)(F)F)C2)ccc1C(=O)NC1(C)CSC1 (stereo not shown) [Reference compound, reference compound]	30%	40%			
Cc1cc(C2=NCC(c3cc(Cl)cc(Cl)c3)(C(F)(F)F)C2)ccc1C(=O)NC1CSC1 (stereo not shown) [drawing 21]					pest or weed control at 0.2 ppm [1, 3]: 40%; pest or weed control at 0.8 ppm [1, 4]: 90%
Cc1cc(C2=NCC(c3cc(Cl)cc(Cl)c3)(C(F)(F)F)C2)ccc1C(=O)NC1(C)CSC1 (stereo not shown) [drawing 22]					pest or weed control at 0.2 ppm [1, 3]: 30%; pest or weed control at 0.8 ppm [1, 4]: 60%
Cc1cc(C2=NCC(c3cc(Cl)cc(Cl)c3)(C(F)(F)F)C2)ccc1C(=O)NC1CS(=O)(=O)C1 (stereo not shown) [drawing 23]					pest or weed control at 0.2 ppm [1, 3]: 97%; pest or weed control at 0.8 ppm [1, 4]: 100%
Cc1cc(C2=NCC(c3cc(Cl)cc(Cl)c3)(C(F)(F)F)C2)ccc1C(=O)NC1(C)CS(=O)(=O)C1 (stereo not shown) [drawing 24]					pest or weed control at 0.2 ppm [1, 3]: 23%; pest or weed control at 0.8 ppm [1, 4]: 60%
Cc1cc(C2=NOC(c3cc(Cl)c(Br)c(Cl)c3)(C(F)(F)F)C2)ccc1C(=O)NC1CSC1 (stereo not shown) [drawing 25]	97%	100%			
Cc1cc(C2=NOC(c3cc(Cl)c(Br)c(Cl)c3)(C(F)(F)F)C2)ccc1C(=O)NC1(C)CSC1 (stereo not shown) [drawing 26]	40%	80%			
O=C(NC1CSC1)c1ccc(C2=NO[C@@](c3cc(Cl)cc(Cl)c3)(C(F)(F)F)C2)cc1Cl [drawing 27]	93%	100%			
CC1(NC(=O)c2ccc(C3=NO[C@@](c4cc(Cl)cc(Cl)c4)(C(F)(F)F)C3)cc2Cl)CSC1 [drawing 28]	80%	97%			
Cc1cc(C2=NOC(c3cc(Cl)cc(Cl)c3)(C(F)(F)F)C2)ccc1C(=O)NC1CSC1 (stereo not shown) [drawing 29]			44%	79%	
Cc1cc(C2=NOC(c3cc(Cl)cc(Cl)c3)(C(F)(F)F)C2)ccc1C(=O)NC1(C)CSC1 (stereo not shown) [drawing 30]			0%	0%	
Cc1cc(C2=NCC(c3cc(Cl)cc(Cl)c3)(C(F)(F)F)C2)ccc1C(=O)NC1CSC1 (stereo not shown) [drawing 31]					pest or weed control at 25 ppm [2, 5]: 100%; pest or weed control at 50 ppm [2, 6]: 100%
Cc1cc(C2=NCC(c3cc(Cl)cc(Cl)c3)(C(F)(F)F)C2)ccc1C(=O)NC1(C)CSC1 (stereo not shown) [drawing 32]					pest or weed control at 25 ppm [2, 5]: 0%; pest or weed control at 50 ppm [2, 6]: 0%
Cc1cc(C2=NCC(c3cc(Cl)cc(Cl)c3)(C(F)(F)F)C2)ccc1C(=O)NC1CS(=O)(=O)C1 (stereo not shown) [drawing 33]					pest or weed control at 25 ppm [2, 5]: 93%; pest or weed control at 50 ppm [2, 6]: 100%
Cc1cc(C2=NCC(c3cc(Cl)cc(Cl)c3)(C(F)(F)F)C2)ccc1C(=O)NC1(C)CS(=O)(=O)C1 (stereo not shown) [drawing 34]					pest or weed control at 25 ppm [2, 5]: 0%; pest or weed control at 50 ppm [2, 6]: 0%
Cc1cc(C2=NOC(c3cc(Cl)c(Br)c(Cl)c3)(C(F)(F)F)C2)ccc1C(=O)NC1CSC1 (stereo not shown) [drawing 35]			30%	80%	
Cc1cc(C2=NOC(c3cc(Cl)c(Br)c(Cl)c3)(C(F)(F)F)C2)ccc1C(=O)NC1(C)CSC1 (stereo not shown) [drawing 36]			0%	0%	
O=C(NC1CSC1)c1ccc(C2=NO[C@@](c3cc(Cl)cc(Cl)c3)(C(F)(F)F)C2)cc1Cl [drawing 37]			15%	45%	
CC1(NC(=O)c2ccc(C3=NO[C@@](c4cc(Cl)cc(Cl)c4)(C(F)(F)F)C3)cc2Cl)CSC1 [drawing 38]			0%	30%	
